{"source": "patent US9403785B2", "about": "“Process for preparing amorphous cabazitaxel” (SHILPA MEDICARE LIMITED, priority 2012, dated 2016)", "key": {"[1]": {"experiment": "Storage stability of solid form (morphology and physicochemical characteristics)", "conditions": "solid material obtained after solvent recovery", "description": "The merit of the process according to the present invention resides in that—product obtained after recovery is obtained in non-solvated amorphous form of Cabazitaxel. Said material was found devoid of any crystal lattice and adequately stable to handle and store for longer time (at least up to more than 6 months) without any significant or measurable change in its morphology and physicochemical characteristics."}, "[2]": {"conditions": "cited from earlier work"}, "[3]": {"conditions": "compared with acetone solvate form (Form A); cited from earlier work"}}}
{"compound": "CO[C@H]1C(=O)[C@@]2(C)C([C@H](OC(=O)c3ccccc3)[C@]3(O)C[C@H](OC(=O)[C@H](O)[C@H](NC(=O)OC(C)(C)C)c4ccccc4)C(C)=C1C3(C)C)[C@]1(OC(C)=O)CO[C@@H]1C[C@@H]2OC", "note": "(stereo in doubt) [(2α,5β,7β,10β,13α)-4-acetoxy-13-({(2R,3S)-3[(tert-butoxy-carbonyl)amino]-2-hydroxy-3-phenylpropanoyl}oxy)-1-hydroxy-7,10-dimethoxy-9-oxo-5,20-epoxytax-11-en-2-yl benzoate]", "values": [{"measurement": "time handled and stored without any significant or measurable change in morphology and physicochemical characteristics", "setting": "[1]", "result": "more than 6 months"}]}
{"compound": "CO[C@H]1C(=O)[C@@]2(C)C([C@H](OC(=O)c3ccccc3)[C@]3(O)C[C@H](OC(=O)[C@H](O)[C@H](NC(=O)OC(C)(C)C)c4ccccc4)C(C)=C1C3(C)C)[C@]1(OC(C)=O)CO[C@@H]1C[C@@H]2OC", "note": "(stereo partly drawn) [Cabazitaxel, (2α,5β,7β,10β,13α)-4-acetoxy-13-({(2R,3S)-3[(tert-butoxycarbonyl)amino]-2-hydroxy-3-phenylpropanoyl}oxy)-1-hydroxy-7,10-dimethoxy-9-oxo-5,20-epoxytax-11-en-2-yl benzoate]", "values": [{"measurement": "solubility in water", "setting": "[2]", "result": "practically insoluble in water"}]}
{"compound": "CO[C@H]1C(=O)[C@]2(C)[C@@H](OC)C[C@H]3OC[C@@]3(OC(C)=O)[C@H]2[C@H](OC(=O)c2ccccc2)[C@]2(O)C[C@H](OC(=O)[C@H](O)[C@@H](NC(=O)OC(C)(C)C)c3ccccc3)C(C)=C1C2(C)C", "note": "[Form D anhydrous, 4-acetoxy-2α-benzoyloxy-5β,20-epoxy-1-hydroxy-7β,10β-dimethoxy-9-oxotax-11-en-13α-yl (2R,3S)-3-tert-butoxycarbonylamino-2-hydroxy-3-phenyl-propionate]", "values": [{"measurement": "stability of solid form", "setting": "[3]", "result": "highly stable, even more stable than acetone solvate form (Form A)"}]}
